Measured values published in patent US6287586A, “Pharmaceutical compositions of vanadium biguanide complexes and their use” (priority 1999, dated 2001).

How the values were obtained:
[1] = withdrawn drug; cited from earlier work
STZ diabetic rats = conditions: cited from earlier work
[2] = Sakurai et al. (1980); cited from earlier work
STZ-diabetic rats = assay: Plasma glucose lowering in STZ-diabetic rats after i.p. administration (glucose oxidase method); type: in vivo, male Wistar rats; conditions: for AUC (blood glucose): over 72 h after 0.12 mmol/kg i.p., group average; for rats with plasma glucose levels reduced to <9 mmol/L: 0.12 mmol/kg i.p. in 3% gum Arabic, STZ-diabetic rats
Experimental: Nineteen male Wistar rats weighing 190-220 g were obtained from the Animal Care Center at the University of British Columbia. Animals were acclimatized for a period of 7-14 days in our facility.
Animals were made diabetic with a single intravenous injection of streptozotocin (STZ) (Source: Sigma) at 60 mg/kg in 0.9% NaCl (1 mL/kg volume) (Source: BDH ) under light halothane (Halocarbon Laboratories) anaesthesia. The diabetic state was confirmed on the third day post-stz-administration with Ames brand Glucometer and Glucostix reading, and blood glucose levels of over 13 mM were categorized as diabetic.
On day seven post STZ-administration, the nineteen animals were divided randomly into four groups. These four groups received one of four treatments, including control. The control group received an equivalent volume of 3% gum Arabic carrier alone.
The gum arabic was prepared by dissolving 3 g of gum arabic in 100 mL of distilled water. This mixture was sealed and stored under refrigeration for 1 week before the experiment.
All drugs were injected intraperitoneally into the rats at a volume of 5 ml/kg in 3% gum Arabic. The dose of administration was 0.12 mmol/kg.
Animals were allowed free access to food.
Blood was collected from the tail into heparinized capillary tubes and centrifuged at 10,000 g for 15 minutes. Blood was collected in 50 μL aliquots in this manner prior to drug administration, and at 2, 4, 6, 8, 12, 16, 20, 24, 48 and 72 hours post administration.
The plasma was analyzed for glucose levels using Boehringer Mannheim Glucose Kits (glucose oxidase method).

[3] = human, in vivo, cited from earlier work
rat adipocytes = conditions: in vitro, Nature 284:556-558 (1980); cited from earlier work

**Q.** Which “side effects (in words)” value [1] does the source give for `[H]/N=C(/N)N/C(=N/[H])NCCc1ccccc1` [phenformin, 1-phenethylbiguanide] here?
**A.** serious lactic acidosis side effects

**Q.** For `[O]=[V]([O-])([O-])[O-]` [vanadate], which “elevated blood glucose (in words)” value (STZ diabetic rats; STZ rats, administered in drinking water, McNeill et al. 1985) is on record?
**A.** decreased the elevated blood glucose

**Q.** And the “depression of cardiac performance (in words)” value (STZ diabetic rats; STZ rats, drinking water, McNeill et al. 1985)?
**A.** prevented the depression of cardiac performance

**Q.** What about the “in vivo reduction (in words)” value [2] of the same compound?
**A.** reduced in vivo to vanadyl

**Q.** With `CN(C)C(=N)NC(=N)N` [Metformin, 1,1-dimethylbiguanide] as the compound, how does the “acute lowering of plasma glucose (in words)” value (STZ-diabetic rats; IP 0.12 mmol/kg in 3% gum Arabic, over 72 hours) read?
**A.** did not acutely lower plasma glucose levels

**Q.** And the “AUC (blood glucose)” value (STZ-diabetic rats)?
**A.** 1572.94 mmol/L/h

**Q.** And the “dose excreted by the kidneys” value ([3]; 24 h)?
**A.** about 90%

**Q.** What about the “oral dose excreted in the feces” value ([3]; po) of the same compound?
**A.** Approximately 30%

**Q.** For `O=S(=O)([O-])[O-].[O]=[V+2]` [vanadyl sulfate], which “blood glucose and blood lipids (in words)” value (STZ diabetic rats; oral, STZ diabetic rats, McNeill et al.) is on record?
**A.** lowers blood glucose and blood lipids

**Q.** And the “secondary complications of diabetes (in words)” value (STZ diabetic rats; oral, STZ diabetic rats, cataracts and cardiac dysfunction)?
**A.** prevents secondary complications of diabetes such as cataracts and cardiac dysfunction

**Q.** What does the source list for “Bis(ethylmaltolato) oxovanadium(IV) [BEOV]”?
**A.** rats with plasma glucose levels reduced to <9 mmol/L (STZ-diabetic rats): 40%; AUC (blood glucose) (STZ-diabetic rats): 1197.30 mmol/L/h

**Q.** For `[O]=[V+2]` [vanadyl ion], which “stimulation of glucose oxidation (in words)” value (rat adipocytes) is on record?
**A.** insulin-like stimulation of glucose oxidation in rat adipocytes was due to the vanadyl ion

**Q.** Which “rats with plasma glucose levels reduced to <9 mmol/L” value (STZ-diabetic rats) does the source give for “Bis(N^1,N^1 -dimethylbiguanidato)oxovanadium(IV) [VO(met)2]” here?
**A.** 40%

**Q.** And the “AUC (blood glucose)” value (STZ-diabetic rats)?
**A.** 1362.61 mmol/L/h

**Q.** What about the “plasma glucose lowering, rat studies (in words)” value (STZ-diabetic rats; rat studies, summary statement) of the same compound?
**A.** active in lowering plasma glucose
